US20230146455A1, “TREATMENT OF INFLAMMATORY DISEASES WITH PEPTIDES AND PHARMACEUTICAL COMPOSITIONS” (Yuyu Pharma, Inc., priority 2020, published 2023)
Values joined by “and” are separate entries in the source; they are usually repeats but may differ in a detail not shown here. Equal values may be shown once. Where a SMILES comes first, the peptide text is derived from it. [ ]: non-standard residue; d: D form. Hyp = O=C(O)[C@@H]1C[C@@H](O)CN1

Legend:
IL-6 = test: Example 8 main study Luminex, LPS hPBMCs: IL-6; assay type: cell-based, human
Procedure: (§1) Human PBMCs were pretreated with YY-101, YDE-011, YDE-043 or reference compound; Xiidra® at various concentration (ranging from […] to 500 nM) for 2 h before stimulation. An equal volume of 0.5% DMSO was used as a vehicle control. Then, the cells were treated with LPS at 5 ug/ml, which was selected based on the pilot study. The supernatants from treated cells were harvested at 24 h and placed in a 96 well for Luminex cytokine & chemokine profiling using a Luminex 200 multiplex assay (Luminex; R&D system, USA).
(§2) The main study arm with triplicate wells per group in a 24-well plate: • 1. Blank • 2. PBMC: 0.5% DMSO • 3. PBMC+LPS (5 ug/ml) • 4. PBMC+YY-101 500 nM • 5. PBMC+YY-101 50 nM • 6. PBMC+YY-101 5 nM • 7. PBMC+YY-101 0.5 nM • 8. PBMC+LPS (5 ug/ml)+Xiidra® 500 nM • 9. PBMC+LPS (5 ug/ml)+Xiidra® 50 nM • 10. PBMC+LPS (5 ug/ml)+Xiidra® 5 nM • 11. PBMC+LPS (5 ug/ml)+Xiidra® 0.5 nM • 12. PBMC+LPS (5 ug/ml)+Xiidra® 0.05 nM • 13. PBMC+LPS (5 ug/ml)+Xiidra® 0.005 nM • 14. PBMC+LPS (5 ug/ml)+YY-101 500 nM • 15. PBMC+LPS (5 ug/ml)+YY-101 50 nM • 16. PBMC+LPS (5 ug/ml)+YY-101 5 nM • 17. PBMC+LPS (5 ug/ml)+YY-101 0.5 nM • 18. PBMC+LPS (5 ug/ml)+YY-101 0.05 nM • 19. PBMC+LPS (5 ug/ml)+YY-101 0.005 nM • 20. PBMC+LPS (5 ug/ml)+YDE-011 500 nM • 21. PBMC+LPS (5 ug/ml)+YDE-011 50 nM • 22. PBMC+LPS (5 ug/ml)+YDE-011 5 nM • 23. PBMC+LPS (5 ug/ml)+YDE-011 0.5 nM • 24. PBMC+LPS (5 ug/ml)+YDE-011 0.05 nM • 25. PBMC+LPS (5 ug/ml)+YDE-011 0.005 nM • 26. PBMC+LPS (5 ug/ml)+YDE-043 500 nM • 27. PBMC+LPS (5 ug/ml)+YDE-043 50 nM • 28. PBMC+LPS (5 ug/ml)+YDE-043 5 nM • 29. PBMC+LPS (5 ug/ml)+YDE-043 0.5 nM • 30. PBMC+LPS (5 ug/ml)+YDE-043 0.05 nM • 31. PBMC+LPS (5 ug/ml)+YDE-043 0.005 nM
(§3) Multiplex assay was used to measure 30 cytokines and chemokines. The 1:200 diluted cell supernatant and serial dilution of the standard were dispensed into a 96 well plate at 50 ul/well. Then, the pre-mixed cocktail of antibody-coated magnetic beads was dispensed at 50 ul/well and incubated at room temperature for 2 h in a horizontal orbital microplate shaker at 800±500 rpm. The beads were washed using a magnetic device to prevent loss. The biotin-antibody was dispensed in 50 ul of each well and incubated at room temperature for 1 h in a shaker at 800±500 rpm. After washing, streptavidin-PE was added at 50 ul/well and incubated at room temperature for 30 min in a shaker under the same conditions. Finally, after washing, wash buffer (100 ul/well) was added to the plate and incubated in a shaker for 2 min. The Luminex™ 200 setting were set according to the manufacturer's protocol. The data was calculated with a standard five-parameter logistic nonlinear regression analysis of the data (xPonent software 4.2, USA). Results were presented as concentration (ng/ml or pg/ml).

CCL2/MCP-1 = test: Example 8 main study Luminex, LPS hPBMCs: CCL2/MCP-1; assay type: cell-based, human; conditions: for CCL2/MCP-1 Concentration: single replicates
Procedure: as §1, §2, §3

[1] = PBMC + LPS(5 ug/ml) + YY101 0.005 nM
[2] = PBMC + LPS(5 ug/ml) + YY101 0.05 nM
[3] = PBMC + LPS(5 ug/ml) + YY101 0.5 nM
[4] = PBMC + LPS(5 ug/ml) + YY101 5 nM
[5] = PBMC + LPS(5 ug/ml) + YY101 50 nM
[6] = PBMC + LPS(5 ug/ml) + YY101 500 nM

## CC(C)C[C@H](NC(=O)CNC(=O)[C@H](CC(=O)O)NC(=O)[C@H](CCC(N)=O)NC(=O)CNC(=O)[C@@H]1C[C@@H](O)CN1)C(=O)N[C@@H](C)C(=O)NCC(=O)N1CCC[C@H]1C(=O)N[C@@H](CCCCN)C(=O)O [YY-101] (H-[Hyp]GQDGLAGPK-OH; N-terminus and C-terminus assumed)
IL-6; PBMC + LPS(5 ug/ml) + test article 0.005 nM
  IL-6 Concentration, Mean: 18061.6 pg/mL
IL-6; PBMC + LPS(5 ug/ml) + test article 0.005 nM, single replicates (1st, 2nd, 3rd)
  IL-6 Concentration: 18760.0 pg/mL and 17676.7 pg/mL and 17748.1 pg/mL
IL-6; PBMC + LPS(5 ug/ml) + test article 0.05 nM
  IL-6 Concentration, Mean: 18375.1 pg/mL
IL-6; PBMC + LPS(5 ug/ml) + test article 0.05 nM, single replicates (1st, 2nd, 3rd)
  IL-6 Concentration: 17605.3 pg/mL and 19105.4 pg/mL and 18414.7 pg/mL
IL-6; PBMC + LPS(5 ug/ml) + test article 0.5 nM
  IL-6 Concentration, Mean: 18018.0 pg/mL
IL-6; PBMC + LPS(5 ug/ml) + test article 0.5 nM, single replicates (1st, 2nd, 3rd)
  IL-6 Concentration: 18069.4 pg/mL and 17248.3 pg/mL and 18736.2 pg/mL
IL-6; PBMC + LPS(5 ug/ml) + test article 5 nM
  IL-6 Concentration, Mean: 17232.8 pg/mL
IL-6; PBMC + LPS(5 ug/ml) + test article 5 nM, single replicates (1st, 2nd, 3rd)
  IL-6 Concentration: 16606.0 pg/mL and 16439.5 pg/mL and 18652.8 pg/mL
IL-6; PBMC + LPS(5 ug/ml) + test article 50 nM
  IL-6 Concentration, Mean: 16962.9 pg/mL
IL-6; PBMC + LPS(5 ug/ml) + test article 50 nM, single replicates (1st, 2nd, 3rd)
  IL-6 Concentration: 16320.6 pg/mL and 16689.2 pg/mL and 17879.0 pg/mL
IL-6; PBMC + LPS(5 ug/ml) + test article 500 nM
  IL-6 Concentration, Mean: 17165.1 pg/mL
IL-6; PBMC + LPS(5 ug/ml) + test article 500 nM, single replicates (1st, 2nd, 3rd)
  IL-6 Concentration: 17129.3 pg/mL and 17748.1 pg/mL and 16617.9 pg/mL
IL-6; PBMC + test article 0.5 nM, no LPS
  IL-6 Concentration, Mean: 16.2 pg/mL
IL-6; PBMC + test article 0.5 nM, no LPS, single replicates (1st, 2nd)
  IL-6 Concentration: 5.0 pg/mL and 27.3 pg/mL
IL-6; PBMC + test article 5 nM, no LPS
  IL-6 Concentration, Mean: 5.0 pg/mL
IL-6; PBMC + test article 5 nM, no LPS, single replicates (1st, 2nd)
  IL-6 Concentration: 5.0 pg/mL
IL-6; PBMC + test article 0.05 uM, no LPS
  IL-6 Concentration, Mean: 140.1 pg/mL
IL-6; PBMC + test article 0.05 uM, no LPS, single replicates (1st, 2nd)
  IL-6 Concentration: 140.1 pg/mL and <2.65 pg/mL
IL-6; PBMC + test article 50 nM, no LPS
  IL-6 Concentration, Mean: 5.0 pg/mL
IL-6; PBMC + test article 50 nM, no LPS, single replicates (1st, 2nd)
  IL-6 Concentration: 5.0 pg/mL and <2.65 pg/mL
IL-6; PBMC + test article 500 nM, no LPS, single replicates (1st, 2nd)
  IL-6 Concentration: <2.65 pg/mL
IL-6; at as low as 5 μM, LPS 5 ug/mL 24 hrs
  LPS-induced IL-6 (in words): significantly reduced
CCL2/MCP-1; [1]
  CCL2/MCP-1 Concentration, Mean: 4528.1 pg/mL
  CCL2/MCP-1 Concentration: 4528.4 pg/mL and 4630.2 pg/mL and 4425.5 pg/mL
CCL2/MCP-1; [2]
  CCL2/MCP-1 Concentration, Mean: 4596.0 pg/mL
  CCL2/MCP-1 Concentration: 4528.4 pg/ml (2×) and 4731.0 pg/ml
CCL2/MCP-1; [3]
  CCL2/MCP-1 Concentration, Mean: 4596.3 pg/mL
  CCL2/MCP-1 Concentration: 4630.2 pg/ml (2×) and 4528.4 pg/ml
CCL2/MCP-1; [4]
  CCL2/MCP-1 Concentration, Mean: 4629.9 pg/mL
  CCL2/MCP-1 Concentration: 4630.2 pg/mL and 4528.4 pg/mL and 4731.0 pg/mL
CCL2/MCP-1; [5]
  CCL2/MCP-1 Concentration, Mean: 4613.3 pg/mL
  CCL2/MCP-1 Concentration: 4579.5 pg/ml and 4630.2 pg/ml (2×)
CCL2/MCP-1; [6]
  CCL2/MCP-1 Concentration, Mean: 4459.8 pg/mL
  CCL2/MCP-1 Concentration: 4425.5 pg/ml (2×) and 4528.4 pg/ml
